Results reported in patent US5514706A, “Pharmaceutical compounds” (Eli Lilly and Company, priority 1994, dated 1996).

Tests used:
Type in all cases: cell-based
[1] = tested on: plasminogen activator (PA) activity in bovine retinal capillary endothelial cells; test: Activation of retinal capillary endothelial cells by phorbol esters (PA activity); details: for IC50: Bos taurus, Endothelial cell, dose-response curves of PA activity, read-out: IC50 from dose-response curves for phorbol ester (activation of PA activity)
Text: (§1) Retinal capillary endothelial cell cultures were initiated from bovine eyes using a modification of the procedure of Buzney et al., Investigative Ophthalmology and Visual Sciences, 24: 470-483. Bovine eyes were transported on ice from a local abattoir. Extraocular muscle was trimmed from the eye, and the eye bisected posterior to the ora serrata. The vitreous and anterior portion of the eye were discarded, and the neuro-retina was gently dissected from the posterior eyecup. The retinas from 20 cattle were pooled and homogenized (5 strokes of a Teflon/glass homogenizer) in Hank's saline. The homogenate was passed through a 350μ filter to remove large debris and a 210μ filter to remove large vessels. The microvessels were trapped on a 85μ filter. The microvessels were resuspended in Hank's saline and digested with 7.5 mg/ml bacterial collagenase (Boeringher Mannhelm, Indianapolis) in Hank's saline for 1 hour at 37° C. The cells were pelleted by centrifugation (100 xg, 10 min), resuspended in 5 ml Endothelial Growth Media (EGM, Clonetics) and seeded in a gelatin-coated T-25 flask. After 24 hours the cells were trypsinized and replated in a gelatin coated T225. At 7 days and again at 14 days the cultures were labeled with acetylated lipoproteins labeled with the fluorescent probe (1,1'-dioctadecyl-3,3,3,3,-tetramethyl-indocarbocyanine perchlorate). The endothelial cells were separated from contaminating cell types using a fluorescent cell sorter as described in Voyta et al., J. Cell Biology. 99: 2034-2040.
(§2) Retinal capillary endothelial cells were seeded into 96-well plates and grown to confluence (10^5 cells/well) in EGM containing 10% fetal bovine serum (FBS). The media was changed to Dubecco's Modified Eagle's Medium with 10% fetal bovine serum 24 hours prior to the assay. The cells were treated with 50 nM 4-b phorbol 12,13-dibutyrate (4-b PDBu) to activate PKC and produce the activated endothelial phenotype characteristic of the diabetic state. The activated cells were treated with a series of dilutions of the test compounds. The phorbol esters and the test compounds were dissolved in DMSO before adding to the culture media. The cultures were incubated at 37° C. for 48 hours. Following treatment, the cells were lysed with 25 mM NH4 OH in 0.5% triton X-100.
(§3) The activation of bovine retinal capillary endothelial cells was monitored through alterations in cellular plasminogen activator (PA) activity in the cell lysates. Plasminogen activator activity was determined in a 50 μl aliquot of cell lysate using the synthetic substrate H-D-valyl-L-leucyl-lysine-p-nitroaniline dihydrochloride (Kabi).
There was also a two fold increase in cell number. […] Dose-response curves generated for 4-b PDBu and 4-b PMA indicated IC50 of 50 nH and 5 nH respectively. Elevated PA activity was observed only after prolonged (at least 8 hours) stimulation with phorbol esters. The PA activity continued to increase in a time and dose dependent manner for up to 72 hours, but constant stimulation with phorbol ester was required to maintain endothelial cell activation.

[2] = tested on: bovine retinal capillary endothelial cells; test: Retinal capillary endothelial cell number after phorbol ester treatment; details: confluent cells, 48 hours
Text: as §1, with “The endothelial cells were separated from contaminating cell types using a fluorescent cell sorter as described in Voyta et al., J. Cell Biology. 99: 2034-2040.” left out

[3] = tested on: cultured smooth cells derived from rabbit aorta; test: 3H-thymidine incorporation (DNA synthesis) in vascular smooth muscle cells stimulated with platelet-derived growth factor; details: Oryctolagus cuniculus; 20 ng/ml platelet-derived growth factor, 24 hours
Procedure: Cells are obtained by explant method as described in Ross, J. Of Cell Bio. 50: 172 (1971). Cells are plated in 96 well microtiter plates for five days. The cultures become confluent and growth arrested. The cells are then transferred to Dulbecco's Modified Eagle's Medium (DMEM) containing 0.5-2% platelet poor plasma, 2 mM L-glutamine, 100 U/ml penicillin, 100 μg ml streptomycin, 1 μ/ml ^3 H-thymidine, 20 ng/ml platelet-derived growth factor and varying concentrations of the compounds. Stock solution of compounds is prepared in dimethyl sulphoxide and then diluted to appropriate concentration (0.01-10 μg/ml) in the above assay medium. Cells are then incubated at 37° C. for 24 hours under 5% CO2 /95% air. At the end of 24 hours, the cells are fixed in methanol. ^3 H thymidine incorporation in DNA was then determined by scintillation counting as described in Bonin et al., Exp. Cell Res. 181:475-482 (1989).
Table 1 discloses the IC50 value of representative compounds tested in the ^3 H-thymidine incorporation model. Thus the invention specifically provides a method of treating restenosis, which comprises administering to a patient in need of treatment an effective amount of a compound of the formula (I).

[4] = tested on: plasminogen activator (PA) activity in bovine retinal capillary endothelial cells; test: Inhibition of phorbol ester-induced activation of retinal capillary endothelial cells (plasminogen activator (PA) activity in cell lysates); details: Bos taurus, activated with 50 nM 4-b PDBu, 48 hours, cell lysate, read-out: PA ED50
Text: as §1, §2, §3
Cell toxicity was determined in a parallel series of cultures using a neutral red assay. Borenfreund, E. and Puerner, J, J. Tiss. Cult. Meth. 9:7 (1984). […] Table 1 discloses the PA ED50 value in this model for representative compounds. The in vitro endothelial cell model was correlated with in situ and in vivo activities by the following models.

Row | IC50 [4] [µM] | SMILES | IC50 [3] [µM] | other results
1 | – | CCCC(=O)O[C@@H]1[C@@H](C)[C@@]2(O)[C@@H](C=C(CO)C[C@@]3(O)C(=O)C(C)=C[C@@H]23)[C@@H]2C(C)(C)[C@]12OC(=O)CCC [4-a PDBu] | – | increase in activation occurred only after treatment with phorbol esters known to activate PKC (yes/no) [1]: not
2 | – | CCCC(=O)O[C@@H]1[C@@H](C)[C@@]2(O)[C@@H](C=C(CO)C[C@]3(O)C(=O)C(C)=C[C@@H]23)[C@@H]2C(C)(C)[C@]12OC(=O)CCC [4-b PDBu, 4-b phorbol 12,13-dibutyrate] | – | increase in cell number [2]: two; increase in activation occurred only after treatment with phorbol esters known to activate PKC (yes/no) [1]: increase in activation occurred; IC50 [1]: 0.05 µM; increase in PA activity associated with the cell layer ([1]; confluent cells, 48 hours): 12 fold; increase in PA released into the media ([1]; confluent cells, 48 hours): 12 fold
3 | – | CCCCCCCCCCCCCC(=O)O[C@@H]1[C@@H](C)[C@@]2(O)[C@@H](C=C(CO)C[C@]3(O)C(=O)C(C)=C[C@@H]23)[C@@H]2C(C)(C)[C@]12OC(C)=O [4-b PMA] | – | increase in activation occurred only after treatment with phorbol esters known to activate PKC (yes/no) [1]: increase in activation occurred; IC50 [1]: 0.005 µM
4 | 0.7 | N#CC1=C(N)Oc2ccc3ccccc3c2C1c1cccc([N+](=O)[O-])c1 (stereo not drawn) [Example 2, 2-Amino-4-(3-nitrophenyl) -4H-naphtho 2,1-b!pyran-3-carbonitrile] | 2.5 | –
5 | > 20 | N#CC1=C(N)Oc2ccc3ccccc3c2C1c1ccc([N+](=O)[O-])cc1 (stereo not drawn) [Example 3, 2-Amino-4-(4-nitrophenyl)-4H-naphtho 2,1-b!pyran-3-carbonitrile] | 8 | –
6 | > 20 | N#CC1=C(N)Oc2ccc3ccccc3c2C1c1ccccc1[N+](=O)[O-] (stereo not drawn) [Example 4, 2-Amino-4-(2-nitrophenyl)-4H-naphtho 2,1-b!pyran-3-carbonitrile] | > 30 | –
7 | 0.7 | N#CC1=C(N)Oc2ccc3ccccc3c2C1c1cccc(Br)c1 (stereo not drawn) [Example 5, 2-Amino-4-(3-bromophenyl)-4H-naphtho 2,1-b!pyran-3-carbonitrile] | 1.8 | –
8 | 1 | N#CC1=C(N)Oc2ccc3ccccc3c2C1c1cccc(Cl)c1 (stereo not drawn) [Example 6, 2-Amino-4-(3-chlorophenyl)-4H-naphtho 2,1-b!pyran-3-carbonitrile] | 2 | –
9 | – | N#CC1=C(N)Oc2ccc3ccccc3c2C1c1cccc(F)c1 (stereo not drawn) [Example 7, 2-Amino-4-(3-fluorophenyl)-4H-naphtho 2,1-b!pyran-3-carbonitrile] | 2 | –
10 | 9 | N#CC1=C(N)Oc2ccc3ccccc3c2C1c1ccc(F)cc1 (stereo not drawn) [Example 8, 2-Amino-4-(4-fluorophenyl)-4H-naphtho 2,1-b!pyran-3-carbonitrile] | 1.5 | –
11 | > 20 | N#CC1=C(N)Oc2ccc3ccccc3c2C1c1ccccc1F (stereo not drawn) [Example 9, 2-Amino-4-(2-fluorophenyl) -4H-naphtho 2,1-b!pyran-3-carbonitrile] | > 3 | –
12 | 0.05 | N#CC1=C(N)Oc2ccc3ccccc3c2C1c1cccc(C(F)(F)F)c1 (stereo not drawn) [Example 10, 2-Amino-4-3-(trifluoromethyl)phenyl!-4H-naphtho 2,1-b!pyran-3-carbonitrile] | 0.5 | –
13 | > 20 | N#CC1=C(N)Oc2ccc3cc(C(=O)O)ccc3c2C1c1cccc([N+](=O)[O-])c1 (stereo not drawn) [Example 11, 2-Amino-3-cyano-4-(3-nitrophenyl)-4H-naphtho 2,1-b!pyran-7-carboxylic acid] | > 30 | –
14 | 0.65 | N#CC1=C(N)Oc2c(O)cc3ccccc3c2C1c1cccc([N+](=O)[O-])c1 (stereo not drawn) [Example 12, 2-Amino-10-hydroxy-4-(3-nitrophenyl)-4H-naphtho 2,1-b!pyran-3-carbonitrile] | 3 | –
15 | > 20 | COc1ccc2ccc3c(c2c1)C(c1cccc([N+](=O)[O-])c1)C(C#N)=C(N)O3 (stereo not drawn) [Example 13, 2-Amino-6-methoxy-4-(3-nitrophenyl)-4H-naphtho 2,1-b!pyran-3-carbonitrile] | > 3 | –
16 | > 100 | COc1cccc(C2C(C#N)=C(N)Oc3ccc4cc(C(=O)O)ccc4c32)c1 (stereo not drawn) [Example 14, 2-Amino-3-cyano-4-(3-methoxyphenyl)-4H-naphtho 2,1-b!pyran-7-carboxylic acid] | – | –
17 | 5 | N#CC1=C(N)Oc2ccc3cc(C(=O)O)ccc3c2C1c1cccc(C(=O)O)c1 (stereo not drawn) [Example 15, 2-Amino-3-cyano-4-(3-carboxyphenyl)-4H-naphtho 2,1-b!pyran-7-carboxylic acid] | – | –
18 | > 100 | N#CC1=C(N)Oc2ccc3cc(C(=O)O)ccc3c2C1c1cccc(OC(F)(F)F)c1 (stereo not drawn) [Example 16, 2-Amino-3-cyano-4-3-(trifluoromethoxy)phenyl!-4H-naphtho 2,1-b!pyran-7-carboxylic acid] | – | –
19 | 8 | CCOC=NC1=C(C#N)C(c2cccc([N+](=O)[O-])c2)c2c(ccc3cc(C(=O)OCC)ccc23)O1 (stereo not drawn) [Example 17, Ethyl 3-cyano-2-ethoxymethyleneamino-4-(3-nitrophenyl)-4H-naphtho 2,1-b!pyran-7-carboxylate] | 6 | –
